Like-named read-outs stand apart in the source and are kept apart here.
What was measured:
[1] = test system: mice; settings: intravenous (IV); cited from earlier work
[2] = test system: patients (AIDS) recovered from Pneumocystis carinii pneumonia (PCP) and late AIDS-Related Complex (ARC); settings: cited from earlier work
[3] = test system: rats; settings: IV dose levels up to 150 mg/kg/day for one month; cited from earlier work
[4] = test system: pregnant rats; settings: up to 500 mg/kg oral, gestation day 6 through 15; cited from earlier work
[5] = test system: patients with AIDS OR AIDS-related complex and HTLV-III/LAV viremia; settings: cited from earlier work
[6] = in vivo; cited from earlier work
[7] = cited from earlier work
[8] = test system: dogs; settings: IV dose levels up to 85 mg/kg/day for 2 weeks; cited from earlier work
[9] = test system: rats; settings: cited from earlier work
[10] = test system: rats; settings: intravenous (IV); cited from earlier work
[11] = test system: cultured human lymphocytes; settings: in vitro; cited from earlier work
[12] = Treatment of severe psoriasis in an individual with AIDS-related complex
[13] = test system: rats; settings: oral, up to 500 mg/kg/day; cited from earlier work
[14] = test system: Beagle dogs; settings: cited from earlier work
[15] = test system: Cynomolgus monkeys; settings: cited from earlier work
[16] = Progression of AIDS in the individual treated for psoriasis; type: in vivo, human; settings: 800 mg orally per day
Excerpt: Of the following examples, examples I through IV disclose toxicity data obtained from the manufacturer of AZT, Burroughs Wellcome Drug Co., developed during the course of obtaining FDA approval for use of the drug in the treatment of AIDS. However, treatment protocols effective in treating psoriasis are similar.
An individual developed severe psoriasis and AIDS-related complex (ARC). As their immunity diminished over the next eight months to a T4 count of 14/mm^3, the psoriasis became more extensive, including 60% of their body, all nails and digits.
Ten months after developing the ARC and psoriasis, the individual developed Pneumocystis carinii pneumonia (PCP) and esophageal candidiasis.

[17] = test system: Cynomolgus monkeys; settings: cited from earlier work; remark: listed apart in the source
[18] = one female dog, sacrificed on day 14

## Cc1cn([C@H]2C[C@H](N=[N+]=[N-])[C@@H](CO)O2)c(=O)[nH]c1=O [azidothymidine, 3'-azido-3'-deoxythymidine]
[1]
  LD50: greater than 70 mg/kg
[2]; 250 mg every 4 hours (1.5 grams daily)
  reduction in dosage or interruption of treatment: Many patients on AZT required a reduction in dosage or interruption of treatment, primarily because of anemia
[2]; 250 mg every 4 hours, as of Sept. 18, 1986, 16 in patients receiving placebo
  deaths (AZT group): one
[2]; human, in vivo
  patients requiring blood transfusions: approximately 25%
[2]; second month of therapy, dose decreased or drug discontinued
  decreases in hemoglobin and neutrophils: decreases in hemoglobin and neutrophils occurred during the second month of therapy and appeared to be reversible if the dose was decreased or drug discontinued
[2]; vs 13 of 137 patients receiving placebo, preliminary review
  patients with greater than 25% reduction in hemoglobin: 47 of 145
[3]
  changes: no changes were noted
[4]
  maternal weight: a slight decrease in maternal weight was noted
[5]; 29 patients
  mild confusion or anxiety (number of patients): Three
  transient elevations in transaminases (number of patients): Five
  transient erythematous rash (number of patients): one
[5]; by six weeks
  decline in hemoglobin: all patients had some decline in hemoglobin by six weeks, the change was not proportional to the starting dose
[5]; during the year since the trial was initiated
  deaths: Four
[5]; human, in vivo, po
  anemia which warranted dose reduction or temporary interruption: Twenty of 28 patients
[5]; human, in vivo
  dose-limiting toxicity / response of neutropenia: appeared to be the dose-limiting toxicity. Neutropenia responded favorably to reduction in dose of AZT
  effect on electrolytes or renal or cardiac function: no effect on electrolytes or renal or cardiac function
  headache (number of patients): 8 patients
  neutropenia (number of patients): 13 patients
[5]; one episode, 29 patients
  generalized pruritus (number of patients): one
[5]; three patients
  bone marrow biopsies: megaloblastic changes
[5]; when the drug is discontinued
  reversibility of anemia: reversible in most patients when the drug is discontinued
[6]
  side effects: hematologic abnormalities such as anemia, neutropenia, bone marrow toxicity, headache, mild CNS symptoms, insomnia
[7]; Group A, IV, 1.0 mg/kg Q 8 hr
  Cmax: 0.44 ± 0.14 microgram/ml
[7]; Group A, oral, 2.0 mg/kg Q 8 hr
  Cmax: 0.53 ± 0.11 microgram/ml
[7]; Group B, IV, 2.5 mg/kg Q 8 hr
  Cmax: 1.17 ± 0.49 microgram/ml
[7]; Group B, oral, 5.0 mg/kg Q 8 hr
  Cmax: 1.37 ± 0.58 microgram/ml
[7]; Group C, IV, 2.5 mg/kg Q 4 hr
  Cmax: 1.06 ± 0.03 microgram/ml
[7]; Group C, oral, 5.0 mg/kg Q 4 hr
  Cmax: 1.57 ± 0.81 microgram/ml
[7]; Group D, IV, 5.0 mg/kg Q 4 hr
  Cmax: 2.28 ± 0.31 microgram/ml
[7]; Group D, oral, 10.0 mg/kg Q 4 hr
  Cmax: 3.14 ± 0.73 microgram/ml
[7]; Group E, IV, 7.5 mg/kg Q 4 hr
  Cmax: 4.71 ± 0.79 microgram/ml
[7]; Group E, oral, 15.0 mg/kg Q 4 hr
  Cmax: 10.40 ± 3.47 microgram/ml
[7]; IV doses from 1.0 to 5.0 mg/kg
  total body clearance: approximately 1900 ml/min/70 kg
[7]; IV dosing
  dose excreted unchanged in the urine as AZT: about 25%
[7]; IV
  plasma decay after the end of infusion: biexponential decay after the end of infusion indicating two-compartmental pharmacokinetics
[7]; all dose levels, IV and oral dosing
  mean half-life: approximately 1.0 hr
[7]; between 5.0 and 7.5 mg/kg IV and 10.0 and 15 mg/kg oral
  dose proportionality of Cmax and AUC: a disproportional increase in peak concentrations (Cmax) and area under the plasma-concentration time curve (AUC)
[7]; chronic IV or oral dosing
  drug or metabolite accumulation: No unexpected drug or metabolite accumulation was observed
[7]; doses to 5.0 mg/kg IV and 10 mg/kg oral
  dose proportionality of concentrations: increased proportionally with doses to 5.0 and 10 mg/kg, for IV and oral administration respectively, indicating dose-independent kinetics up to these dosages
[7]; estimated
  renal clearance: about 500 ml/min
[7]; oral, all dose levels
  bioavailability: 60-70%
[7]; oral
  cause of incomplete bioavailability: appears to be due to first-pass metabolism, rather than reduced absorption
[8]
  alterations: No significant alterations were seen
[9]; high dose female rats, day 89
  glucose: A mild increase in glucose was observed only in high dose female rats on day 89
[9]; high dose male rats
  clinical observation (staining of the anogenital area): occasional staining of the anogenital area in high dose male rats
[9]; high dose rats at various times
  SGOT: a mild decrease in SGOT in high dose rats at various times
[9]; rats, 13 weeks oral
  hematologic changes or gross pathologic changes: no hematologic changes or gross pathologic changes
[9]; rats, 56, 167 or 500 mg/kg/day by gavage, 13 weeks
  treatment related deaths: no treatment related deaths
[10]
  LD50: greater than 70 mg/kg
[11]
  clastogenicity: clastogenic
[12]; 800 mg orally per day
  psoriasis clearance: completely cleared
  time to complete clearing of psoriasis: two to three
  time to significant improvement in lesion pruritus: ≤ 24 h
[12]; 800 mg orally per day, within 24 hours
  lesion pruritus: a significant improvement in the lesion pruritus
[12]; AZT held 7 days, restarted at half dose
  pruritus after AZT was held for 7 days and restarted at half dose: The pruritus returned temporarily
[12]; after a month, restarted at half dose
  anemia: The AZT was held for 7 days after a month for anemia
[12]; in vivo
  time until psoriasis began to clear: 24 h
[12]; over a period several weeks
  improvement of psoriasis: significant improvement over a period several weeks
[12]; three months
  nail regrowth and psoriasis at three months: nail regrowth was normal and the psoriasis was completely clear
[13]
  histologic changes in liver and kidney: very minimal histologic changes in the liver and kidney of a few animals were observed
[14]; Beagle dogs, oral, all dose levels (125, 250, 500 mg/kg/day), 2 weeks
  leukopenia and thrombocytopenia: Moderate to marked leukopenia and thrombocytopenia was noted at all dose levels
[14]; Beagle dogs, oral, high doses, daily for 2 weeks
  vomiting and fecal alterations: Vomiting and fecal alterations (with blood) were seen in dogs receiving high doses
[14]; Beagle dogs, oral, further studies
  bone marrow and lymphoid tissue findings: hypocellularity of the bone marrow; hypoactive lymphoid tissues were also noted
[14]; high dose dogs and a mid-dose female, high dose female
  gross gastrointestinal findings: hemorrhage in the gastrointestinal tract in the high dose dogs and a mid-dose female, as well as a maturational defect with mucosal atrophy in the intestinal tract of the high dose female were observed
[14]; [18]
  alkaline phosphatase, BUN, and creatinine: alkaline phosphatase, BUN, and creatinine were elevated
  weight loss: significant weight loss
[15]; 26-39 day post-dosing recovery period
  recovery of hematology values: These values returned to normal limits during the 26-39 day post-dosing recovery period
[15]; 34, 100, or 300 mg/kg by gavage, day 21
  RBCs, hemoglobin, and hematocrit: dose-related decreases in RBCs, hemoglobin, and hematocrit at day 21
[15]; remainder of treatment period after day 21
  hemoglobin and hematocrit: hemoglobin and hematocrit remained stable
[15]; until the end of treatment
  RBCs: further reduced until the end of treatment
[16]
  efficacy in relieving the progression of AIDS: no efficacy in relieving the progression of this individual's AIDS
[17]; Cynomolgus monkeys, high dose male, oral, 2 weeks
  vomiting: frequent vomiting in the high dose male
[17]; all treatment levels (125, 250, 500 mg/kg/day), oral 2 weeks, values still within normal limits
  RBC, HCT, Hgb: a slight nondose-related decrease (values still within normal limits) in RBC, HCT, Hgb at all treatment levels
[17]; treated males and the high dose female, values still within normal limits
  SGPT: a slight increase in SGPT (Values still within normal limits) in treated males and the high dose female

Reference: patent US4804651A, “Methods and compositions for the treatment of psoriasis” (Board of Regents, The University of Texas System, priority 1987, dated 1989)
